Assay results reported in ChEMBL document CHEMBL3407445, “Benzofuran-derived benzylpyridinium bromides as potent acetylcholinesterase inhibitors” (Eur J Med Chem, 2015).

Tests used:
[1] = target: Acetylcholinesterase (Electrophorus electricus, UniProt O42275); experiment: Inhibition of electric eel AChE using acetylthiocholine substrate by Ellman's reagent based method
[2] = target: Acetylcholinesterase (Electrophorus electricus) (UniProt O42275); experiment: Potency index, ratio of IC50 for donepezil to IC50 for compound against electric eel AChE using acetylthiocholine substrate by Ellman's reagent based method
Sequence of Acetylcholinesterase (Electrophorus electricus) (O42275 24-633 limits assumed): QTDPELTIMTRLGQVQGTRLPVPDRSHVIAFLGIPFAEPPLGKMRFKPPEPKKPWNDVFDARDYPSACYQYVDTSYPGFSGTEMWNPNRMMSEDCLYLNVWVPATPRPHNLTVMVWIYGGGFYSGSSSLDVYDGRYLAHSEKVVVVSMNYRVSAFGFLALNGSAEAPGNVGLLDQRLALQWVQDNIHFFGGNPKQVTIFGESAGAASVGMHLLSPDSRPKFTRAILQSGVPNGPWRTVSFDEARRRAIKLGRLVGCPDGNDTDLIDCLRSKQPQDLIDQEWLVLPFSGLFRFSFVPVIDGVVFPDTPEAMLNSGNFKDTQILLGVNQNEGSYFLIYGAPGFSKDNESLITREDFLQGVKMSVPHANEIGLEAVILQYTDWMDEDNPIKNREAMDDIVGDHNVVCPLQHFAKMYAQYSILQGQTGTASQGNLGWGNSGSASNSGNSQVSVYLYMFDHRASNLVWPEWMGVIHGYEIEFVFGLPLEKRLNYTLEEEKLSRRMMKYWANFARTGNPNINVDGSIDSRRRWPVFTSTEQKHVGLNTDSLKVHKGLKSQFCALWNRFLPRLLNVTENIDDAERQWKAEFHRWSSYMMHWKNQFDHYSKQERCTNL

Sequence of Acetylcholinesterase (O42275 whole entry): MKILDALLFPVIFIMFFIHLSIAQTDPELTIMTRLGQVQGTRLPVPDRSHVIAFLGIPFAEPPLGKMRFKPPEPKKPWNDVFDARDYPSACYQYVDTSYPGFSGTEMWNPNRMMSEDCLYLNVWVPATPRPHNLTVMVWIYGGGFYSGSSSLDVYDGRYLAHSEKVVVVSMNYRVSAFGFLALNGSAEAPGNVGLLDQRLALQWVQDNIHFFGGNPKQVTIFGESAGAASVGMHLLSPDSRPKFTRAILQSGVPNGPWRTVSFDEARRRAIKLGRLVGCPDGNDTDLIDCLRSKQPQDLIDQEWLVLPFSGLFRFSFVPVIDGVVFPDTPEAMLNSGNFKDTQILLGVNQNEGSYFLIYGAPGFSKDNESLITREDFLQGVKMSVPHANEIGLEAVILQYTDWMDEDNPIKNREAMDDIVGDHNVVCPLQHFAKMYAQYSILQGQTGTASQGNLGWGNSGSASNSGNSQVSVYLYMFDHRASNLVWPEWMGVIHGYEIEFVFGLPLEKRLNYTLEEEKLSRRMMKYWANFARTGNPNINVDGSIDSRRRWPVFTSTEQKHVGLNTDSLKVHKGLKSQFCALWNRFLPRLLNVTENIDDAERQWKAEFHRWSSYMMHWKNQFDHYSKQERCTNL

COc1cccc2cc(-c3cc[n+](Cc4ccc(Br)cc4)cc3)oc12
IC50 [1]: 0.0295 µM

Brc1ccc(C[n+]2ccc(-c3cc4cc(Br)ccc4o3)cc2)cc1
IC50 [1]: 0.0315 µM

Cc1ccccc1C[n+]1ccc(-c2cc3ccccc3o2)cc1
IC50 [1]: 0.0068 µM

COc1cccc2cc(-c3cc[n+](Cc4cccc(Br)c4)cc3)oc12
IC50 [1]: 0.0224 µM

O=[N+]([O-])c1ccc(C[n+]2ccc(-c3cc4cc(Br)ccc4o3)cc2)cc1
IC50 [1]: 0.0081 µM

Brc1ccc(C[n+]2ccc(-c3cc4ccccc4o3)cc2)cc1
IC50 [1]: 0.016 µM

COc1cccc2cc(-c3cc[n+](Cc4ccc([N+](=O)[O-])cc4)cc3)oc12
IC50 [1]: 0.0106 µM

Fc1ccc(C[n+]2ccc(-c3cc4cc(Br)ccc4o3)cc2)cc1
IC50 [1]: 0.0087 µM

Cc1cc(C)cc(C[n+]2ccc(-c3cc4ccccc4o3)cc2)c1
IC50 [1]: 0.0041 µM
Ratio IC50 [2]: 7

O=[N+]([O-])c1ccc(C[n+]2ccc(-c3cc4ccccc4o3)cc2)cc1
IC50 [1]: 0.0058 µM

Brc1ccc2oc(-c3cc[n+](Cc4ccccc4)cc3)cc2c1
IC50 [1]: 0.0135 µM

COc1cccc2cc(-c3cc[n+](Cc4ccccc4)cc3)oc12
IC50 [1]: 0.0265 µM

COc1cccc2cc(-c3cc[n+](Cc4cccc(F)c4)cc3)oc12
IC50 [1]: 0.0189 µM

Fc1cccc(C[n+]2ccc(-c3cc4cc(Br)ccc4o3)cc2)c1
IC50 [1]: 0.0096 µM

O=[N+]([O-])c1ccccc1C[n+]1ccc(-c2cc3ccccc3o2)cc1
IC50 [1]: 0.0049 µM
